In paper PMC5936909, “Identification of potent chromone embedded [1,2,3]-triazoles as novel anti-tubercular agents” (Royal Society Open Science, 2018):
Read-outs that look alike come from different tables or passages of the source.

How the values were obtained:
[1] = system: RAW 264.7 cells; assay: in vitro cytotoxicity, MTT assay; conditions: at 50 µg ml^−1, RAW 264.7 cells
[2] = system: Mycobacterium tuberculosis H37Rv (ATCC27294); assay: in vitro anti-tubercular activity, MABA assay; type: cell-based
[3] = M. tuberculosis H37Rv, MABA, lowest concentration with complete inhibition of growth
[4] = Mycobacterium tuberculosis, M. tuberculosis H37Rv, MABA, lowest concentration with complete inhibition of growth, read-out: MIC
[5] = Mycobacterium tuberculosis, supplement page S73 correlation table, read-out: MIC
[6] = Mycobacterium tuberculosis, supplement page S72, standard drugs, read-out: MIC

Compound	cytotoxicity (percentage inhibition of cells) [1]	MIC [2, 3]	melting point	MIC [2, 4]	MIC [2, 5]	times more active than the standard drug ethambutol ([2]; ratio of MIC values)	MIC [2, 6]
2-((1H-1,2,3-triazol-1-yl)methyl)-4H-chromen-4-one [6t]	30.12%	50 µg/mL					
3-((4-(4-propylphenyl)-1H-1,2,3-triazol-1-yl)methyl)-4H-chromen-4-one [6d]	20.60%	50 µg/mL					
O=c1c(Cn2cc(-c3ccccc3)nn2)coc2ccccc12 [6a, 3-((4-phenyl-1H-1,2,3-triazol-1-yl)methyl)-4H-chromen-4-one]	12.86%		154 to 155 °C	25 µg/mL			
Cc1ccc(-c2cn(Cc3coc4ccccc4c3=O)nn2)cc1 [6b, 3-((4-(p-tolyl)-1H-1,2,3-triazol-1-yl)methyl)-4H-chromen-4-one]	26.82%		170 to 172 °C	25 µg/mL			
CCc1ccc(-c2cn(Cc3coc4ccccc4c3=O)nn2)cc1 [6c, 3-((4-(4-ethylphenyl)-1H-1,2,3-triazol-1-yl)methyl)-4H-chromen-4-one]	16.12%			25 µg/mL			
CCCCCc1ccc(-c2cn(Cc3coc4ccccc4c3=O)nn2)cc1 [6e, 3-((4-(4-pentylphenyl)-1H-1,2,3-triazol-1-yl)methyl)-4H-chromen-4-one]	20.12%		147 to 148 °C	25 µg/mL			
CC(C)(C)c1ccc(-c2cn(Cc3coc4ccccc4c3=O)nn2)cc1 [6f, 3-((4-(4-(tert-butyl)phenyl)-1H-1,2,3-triazol-1-yl)methyl)-4H-chromen-4-one]	20.12%	3.125 µg/mL	218 to 219 °C		3.12 µg/mL		
COc1ccc(-c2cn(Cc3coc4ccccc4c3=O)nn2)cc1 [6g, 3-((4-(4-methoxyphenyl)-1H-1,2,3-triazol-1-yl)methyl)-4H-chromen-4-one]	28.40%	6.25 µg/mL	170 to 171 °C		6.25 µg/mL		
CCCCCOc1ccc(-c2cn(Cc3coc4ccccc4c3=O)nn2)cc1 [6h, 3-((4-(4-(pentyloxy)phenyl)-1H-1,2,3-triazol-1-yl)methyl)-4H-chromen-4-one]	18.68%	3.125 µg/mL	154 to 155 °C		3.12 µg/mL		
Cc1cccc(-c2cn(Cc3coc4ccccc4c3=O)nn2)c1 [6i, 3-((4-(m-tolyl)-1H-1,2,3-triazol-1-yl)methyl)-4H-chromen-4-one]	26.82%		124 to 125 °C	25 µg/mL			
COc1ccc(-c2cn(Cc3coc4ccccc4c3=O)nn2)c(C)c1 [6j, 3-((4-(4-methoxy-2-methylphenyl)-1H-1,2,3-triazol-1-yl)methyl)-4H-chromen-4-one]	30.34%		172 to 173 °C	50 µg/mL			
O=c1c(Cn2cc(-c3cccc4ccccc34)nn2)coc2ccccc12 [6k, 3-((4-(naphthalen-1-yl)-1H-1,2,3-triazol-1-yl)methyl)-4H-chromen-4-one]	26.12%		154 to 155 °C	50 µg/mL			
O=c1c(Cn2cc(-c3ccccn3)nn2)coc2ccccc12 [6l, 3-((4-(pyridin-2-yl)-1H-1,2,3-triazol-1-yl)methyl)-4H-chromen-4-one]	30.60%		175 to 176 °C	50 µg/mL			
CCCCc1cn(Cc2coc3ccccc3c2=O)nn1 [6m, 3-((4-butyl-1H-1,2,3-triazol-1-yl)methyl)-4H-chromen-4-one]	36.82%	6.25 µg/mL	87 to 88 °C		6.25 µg/mL		
CCCCCCc1cn(Cc2coc3ccccc3c2=O)nn1 [6n, 3-((4-hexyl-1H-1,2,3-triazol-1-yl)methyl)-4H-chromen-4-one]	23.74%		84 to 85 °C	50 µg/mL			
O=c1c(Cn2cc(C3CCCC3)nn2)coc2ccccc12 [6o, 3-((4-cyclopentyl-1H-1,2,3-triazol-1-yl)methyl)-4H-chromen-4-one]	18.42%	3.125 µg/mL	157 to 158 °C		3.12 µg/mL		
O=c1c(Cn2cc(C3CCCCC3)nn2)coc2ccccc12 [6p, 3-((4-cyclohexyl-1H-1,2,3-triazol-1-yl)methyl)-4H-chromen-4-one]	20.12%	12.5 µg/mL	145 to 146 °C		12.5 µg/mL		
O=c1c(Cn2cc(CC3CCCCC3)nn2)coc2ccccc12 [6q, 3-((4-(cyclohexylmethyl)-1H-1,2,3-triazol-1-yl)methyl)-4H-chromen-4-one]	28.62%		133 to 134 °C	25 µg/mL			
O=c1c(Cn2cc(C3(O)c4ccccc4-c4ccccc43)nn2)coc2ccccc12 [6r, 3-((4-(9-hydroxy-9H-fluoren-9-yl)-1H-1,2,3-triazol-1-yl)methyl)-4H-chromen-4-one]	30.60%		239 to 240 °C	50 µg/mL			
O=c1c(Cn2cc(CCCCCCCCCCCCCCCO)nn2)coc2ccccc12 [6s, 3-((4-(15-hydroxypentadecyl)-1H-1,2,3-triazol-1-yl)methyl)-4H-chromen-4-one]	24.68%	1.56 µg/mL	123 to 124 °C		1.56 µg/mL	4.8 times	
CO[C@H]1/C=C/O[C@@]2(C)Oc3c(C)c(O)c4c(O)c(c(/C=N/N5CCN(C)CC5)c(O)c4c3C2=O)NC(=O)/C(C)=C\C=C\[C@H](C)[C@H](O)[C@@H](C)[C@@H](O)[C@@H](C)[C@H](OC(C)=O)[C@@H]1C [Rifampicin, rifampicin, reference compound]				0.24 µg/mL			0.24 µM
CC[C@@H](CO)NCCN[C@@H](CC)CO [ethambutol, reference compound]				7.64 µg/mL			7.64 µM
